Laboratory results taken from patent US9233983B2, “Substituted hetero-bicyclic compounds, compositions and medicinal applications thereof” (ADVINUS THERAPEUTICS LIMITED, priority 2012, dated 2016).

Legend:
[1] = molecular target: human Bruton's Tyrosine Kinase (Btk) (Homo sapiens (Human), UniProt Q06187); assay: Recombinant Human Bruton's Tyrosine Kinase (Btk) Inhibition Assay (HTRF KinEASE-TK); assay type: biochemical; details: 20 ng/ml rhBtk, 77 μM ATP (KM), 1 μM TK-Biotin substrate, 90 min; read-out: hBTK IC50
[2] = tested on: mouse splenocytes; assay: Inhibition of B Cell Activation as Measured by CD69 Expression in Mouse Splenocytes; assay type: cell-based; details: Splenocyte; C57/BL6 splenocytes, 3 ug/mL goat anti-mouse IgM, 18-20 hrs, CD69+ve cells within CD19; read-out: Mouse spleenocyte IC50
Method: Inhibition of B Cell Activation as Measured by CD69 Expression in Mouse Splenocytes:
To test the effect of BTK inhibitors in suppressing B-cell receptor (BCR) mediated activation of B cells, we developed a flow cytometry based assay to analyze CD69 expression in B cell population among total splenocyte from the mouse. […] Finally, cell were cultured in RPMI medium with 10% FBS.
Test compounds were diluted half log starting from 2 mM in 100% DMSO (200×). 1×10^5 splenocytes were incubated with 1 uL of diluted test compounds in 200 uL culture medium in a U-bottom 96 well plate (Greiner) at 37° C. with 5% CO2 for 30 mins. Control wells received 1 uL of 100% DMSO without any compound. The cells were stimulated with 3 ug/mL goat anti-mouse IgM (Sigma, cat#M8644) and incubated for 18-20 hrs. […] Then the cells were washed 3 times with PBS with 1% FBS and analyzed by Guava Easycyte Mini flow cytometer system (Millipore). Flow cytometry data were analyzed using Weasel software (WEHI, Melbourne). First B cells were gated using CD19 markers. Then expression of CD69 was analyzed as percentage of CD69+ve cells within CD19. Percent activity for each data point was calculated using following formula: […]
Percentage activity was fit using sigmoid dose response with variable slope logistic equation in Graph-pad Prism 5 software to determine inhibition constant 50 (IC50).

Chain of human Bruton's Tyrosine Kinase (Btk) (Q06187 whole entry): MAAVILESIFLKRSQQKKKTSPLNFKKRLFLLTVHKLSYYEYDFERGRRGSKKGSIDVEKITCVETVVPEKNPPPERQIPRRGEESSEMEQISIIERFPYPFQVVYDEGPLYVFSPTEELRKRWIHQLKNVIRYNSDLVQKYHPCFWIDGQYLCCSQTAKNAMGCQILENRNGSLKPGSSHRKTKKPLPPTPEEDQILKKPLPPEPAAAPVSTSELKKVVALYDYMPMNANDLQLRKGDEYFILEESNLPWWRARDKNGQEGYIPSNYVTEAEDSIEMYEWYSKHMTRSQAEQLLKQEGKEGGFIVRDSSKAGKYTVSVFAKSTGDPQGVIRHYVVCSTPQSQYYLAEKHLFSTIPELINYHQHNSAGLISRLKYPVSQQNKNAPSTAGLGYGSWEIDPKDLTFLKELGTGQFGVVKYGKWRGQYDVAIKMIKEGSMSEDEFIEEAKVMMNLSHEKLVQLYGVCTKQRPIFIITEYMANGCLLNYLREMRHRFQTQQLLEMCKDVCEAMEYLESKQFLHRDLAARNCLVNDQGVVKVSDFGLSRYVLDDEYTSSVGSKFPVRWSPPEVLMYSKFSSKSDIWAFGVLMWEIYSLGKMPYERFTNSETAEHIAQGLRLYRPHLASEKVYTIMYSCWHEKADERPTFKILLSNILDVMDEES

Row | Compound | IC50 [1] | IC50 [2]
1 | O=C1c2ccc(C3CC3)cc2OCCN1c1cccc(-c2ccnc3[nH]c(-c4cnn(C5COC5)c4)cc23)c1CO [Example F-1, 8-cyclopropyl-4-[2-(hydroxymethyl)-3-[2-[1-(oxetan-3-yl)pyrazol-4-yl]-1H-pyrrolo[2,3-b]pyridin-4-yl]phenyl]-2,3-dihydro-1,4-benzoxazepin-5-one] | 3 nM | 70 nM
2 | CC1(O)CCC(n2cc(-c3cc4c(-c5cccc(N6CCOc7cc(C8CC8)ccc7C6=O)c5CO)ccnc4[nH]3)cn2)CC1 (stereo not shown) [Example F-3, 8-cyclopropyl-4-[2-(hydroxymethyl)-3-[2-[1-(4-hydroxy-4-methyl-cyclohexyl)pyrazol-4-yl]-1H-pyrrolo[2,3-b]pyridin-4-yl]phenyl]-2,3-dihydro-1,4-benzoxazepin-5-one] | 3.8 nM | 92 nM
3 | CN1CCC(Oc2ccc(-c3cc4c(-c5cccc(N6CCOc7cc(C8CC8)ccc7C6=O)c5CO)ncnc4[nH]3)cc2)CC1 [Example G-1, 8-cyclopropyl-4-[2-(hydroxymethyl)-3-[6-[4-[(1-methyl-4-piperidyl)oxy]phenyl]-7H-pyrrolo[2,3-d]pyrimidin-4-yl]phenyl]-2,3-dihydro-1,4-benzoxazepin-5-one] | 3 nM | 51 nM
4 | CN1CC(Oc2ccc(-c3cc4c(-c5cccc(N6CCOc7cc(C8CC8)ccc7C6=O)c5CO)ncnc4[nH]3)cc2)C1 [Example G-2, 8-cyclopropyl-4-[2-(hydroxymethyl)-3-[6-[4-(1-methylazetidin-3-yl)oxyphenyl]-7H-pyrrolo[2,3-d]pyrimidin-4-yl]phenyl]-2,3-dihydro-1,4-benzoxazepin-5-one] | 5 nM | 54 nM
5 | CN1CCN(Cc2ccc(-c3cc4c(-c5cccc(N6CCOc7cc(C8CC8)ccc7C6=O)c5CO)ccnc4[nH]3)nc2)CC1 [Example I-1, 8-cyclopropyl-4-[2-(hydroxymethyl)-3-[2-[5-[(4-methylpiperazin-1-yl)methyl]-2-pyridyl]-1H-pyrrolo[2,3-b]pyridin-4-yl]phenyl]-2,3-dihydro-1,4-benzoxazepin-5-one] | 5 nM | 14 nM
6 | CN1CCN(Cc2ccc(-c3cc4c(-c5cccc(N6CCOc7cc(C8CC8)cc(F)c7C6=O)c5CO)ccnc4[nH]3)nc2)CC1 [Example I-2, 8-cyclopropyl-6-fluoro-4-[2-(hydroxymethyl)-3-[2-[5-[(4-methylpiperazin-1-yl)methyl]-2-pyridyl]-1H-pyrrolo[2,3-b]pyridin-4-yl]phenyl]-2,3-dihydro-1,4-benzoxazepin-5-one] | 1 nM | 5 nM
7 | CCN1CCN(Cc2ccc(-c3cc4c(-c5cccc(N6CCOc7cc(C8CC8)ccc7C6=O)c5CO)ccnc4[nH]3)nc2)CC1 [Example I-4, 8-cyclopropyl-4-[3-[2-[5-[(4-ethylpiperazin-1-yl)methyl]-2-pyridyl]-1H-pyrrolo[2,3-b]pyridin-4-yl]-2-(hydroxymethyl)phenyl]-2,3-dihydro-1,4-benzoxazepin-5-one] | 2 nM | 23 nM
8 | O=C1c2ccc(C3CC3)cc2OCCN1c1cccc(-c2ccnc3[nH]c(-c4ccc(CN5CCN(C6CC6)CC5)cn4)cc23)c1CO [Example I-5, 8-cyclopropyl-4-[3-[2-[5-[(4-cyclopropylpiperazin-1-yl)methyl]-2-pyridyl]-1H-pyrrolo[2,3-b]pyridin-4-yl]-2-(hydroxymethyl)phenyl]-2,3-dihydro-1,4-benzoxazepin-5-one] | 3 nM | 30 nM
9 | CS(=O)(=O)N1CCN(Cc2ccc(-c3cc4c(-c5cccc(N6CCOc7cc(C8CC8)ccc7C6=O)c5CO)ccnc4[nH]3)nc2)CC1 [Example I-6, 8-cyclopropyl-4-[2-(hydroxymethyl)-3-[2-[5-[(4-methylsulfonylpiperazin-1-yl)methyl]-2-pyridyl]-1H-pyrrolo[2,3-b]pyridin-4-yl]phenyl]-2,3-dihydro-1,4-benzoxazepin-5-one] | 3 nM | 36 nM
10 | CC(C)N1CCN(Cc2ccc(-c3cc4c(-c5cccc(N6CCOc7cc(C8CC8)ccc7C6=O)c5CO)ccnc4[nH]3)nc2)CC1 [Example I-7, 8-cyclopropyl-4-[2-(hydroxymethyl)-3-[2-[5-[(4-isopropylpiperazin-1-yl)methyl]-2-pyridyl]-1H-pyrrolo[2,3-b]pyridin-4-yl]phenyl]-2,3-dihydro-1,4-benzoxazepin-5-one] | 2 nM | 21 nM
11 | O=C1c2ccc(C3CC3)cc2OCCN1c1cccc(-c2ccnc3[nH]c(-c4ccc(CN5CCS(=O)(=O)CC5)cn4)cc23)c1CO [Example I-8, 8-cyclopropyl-4-[3-[2-[5-[(1,1-dioxo-1,4-thiazinan-4-yl)methyl]-2-pyridyl]-1H-pyrrolo[2,3-b]pyridin-4-yl]-2-(hydroxymethyl)phenyl]-2,3-dihydro-1,4-benzoxazepin-5-one] | 9 nM | 85 nM
12 | O=C1c2ccc(C3CC3)cc2OCCN1c1cccc(-c2ccnc3[nH]c(-c4ccc(CN5CCN(CC(F)(F)F)CC5)cn4)cc23)c1CO [Example I-9, 8-cyclopropyl-4-[2-(hydroxymethyl)-3-[2-[5-[[4-(2,2,2-trifluoroethyl)piperazin-1-yl]methyl]-2-pyridyl]-1H-pyrrolo[2,3-b]pyridin-4-yl]phenyl]-2,3-dihydro-1,4-benzoxazepin-5-one] | 8 nM | 47 nM
13 | O=C1c2ccc(C3CC3)cc2OCCN1c1cccc(-c2ccnc3[nH]c(-c4ccc(CN5CCN(S(=O)(=O)C6CC6)CC5)cn4)cc23)c1CO [Example I-10, 8-cyclopropyl-4-[3-[2-[5-[(4-cyclopropylsulfonylpiperazin-1-yl)methyl]-2-pyridyl]-1H-pyrrolo[2,3-b]pyridin-4-yl]-2-(hydroxymethyl)phenyl]-2,3-dihydro-1,4-benzoxazepin-5-one] | 7 nM | 31 nM

Now from value to compound:

Row | IC50 [1] | IC50 [2] | Compound
14 | 2 nM | 46 nM | CCN1CCN(Cc2ccc(-c3cc4c(-c5cccc(N6CCOc7cc(C8CC8)cc(F)c7C6=O)c5CO)ccnc4[nH]3)nc2)CC1 [Example I-12, 8-cyclopropyl-4-[3-[2-[5-[(4-ethylpiperazin-1-yl)methyl]-2-pyridyl]-1H-pyrrolo[2,3-b]pyridin-4-yl]-2-(hydroxymethyl)phenyl]-6-fluoro-2,3-dihydro-1,4-benzoxazepin-5-one]
15 | 2 nM | 8 nM | O=C1c2c(F)cc(C3CC3)cc2OCCN1c1cccc(-c2ccnc3[nH]c(-c4ccc(CN5CCN(C6COC6)CC5)cn4)cc23)c1CO [Example I-13, 8-cyclopropyl-6-fluoro-4-[2-(hydroxymethyl)-3-[2-[5-[[4-(oxetan-3-yl)piperazin-1-yl]methyl]-2-pyridyl]-1H-pyrrolo[2,3-b]pyridin-4-yl]phenyl]-2,3-dihydro-1,4-benzoxazepin-5-one]
16 | 1.7 nM | 7.5 nM | CC1CN(Cc2ccc(-c3cc4c(-c5cccc(N6CCOc7cc(C8CC8)cc(F)c7C6=O)c5CO)ccnc4[nH]3)nc2)CC(C)N1C (stereo not shown) [Example I-14, 8-cyclopropyl-6-fluoro-4-[2-(hydroxymethyl)-3-[2-[5-[(3,4,5-trimethylpiperazin-1-yl)methyl]-2-pyridyl]-1H-pyrrolo[2,3-b]pyridin-4-yl]phenyl]-2,3-dihydro-1,4-benzoxazepin-5-one]
17 | 1.5 nM | 18 nM | CN1CCN(Cc2ccc(-c3cc4c(-c5cccc(N6CCOc7cc(C8CC8)cc(F)c7C6=O)c5CO)ccnc4[nH]3)nc2)CC1=O [Example I-15, 8-cyclopropyl-6-fluoro-4-[2-(hydroxymethyl)-3-[2-[5-[(4-methyl-3-oxo-piperazin-1-yl)methyl]-2-pyridyl]-1H-pyrrolo[2,3-b]pyridin-4-yl]phenyl]-2,3-dihydro-1,4-benzoxazepin-5-one]
18 | 1.6 nM | 7.7 nM | O=C1c2c(F)cc(C3CC3)cc2OCCN1c1cccc(-c2ccnc3[nH]c(-c4ccc(CN5CCN(CC(F)(F)F)CC5)cn4)cc23)c1CO [Example I-16, 8-cyclopropyl-6-fluoro-4-[2-(hydroxymethyl)-3-[2-[5-[[4-(2,2,2-trifluoroethyl)piperazin-1-yl]methyl]-2-pyridyl]-1H-pyrrolo[2,3-b]pyridin-4-yl]phenyl]-2,3-dihydro-1,4-benzoxazepin-5-one]
19 | 9 nM | 179 nM | CN1CCC(F)(c2ccc(-c3cc4c(-c5cccc(N6CCOc7cc(C8CC8)ccc7C6=O)c5CO)ccnc4[nH]3)cc2)CC1 [Example J-1, 8-cyclopropyl-4-[3-[2-[4-(4-fluoro-1-methyl-4-piperidyl)phenyl]-1H-pyrrolo[2,3-b]pyridin-4-yl]-2-(hydroxymethyl)phenyl]-2,3-dihydro-1,4-benzoxazepin-5-one]
20 | 3.5 nM | 77 nM | CN1CCCC(F)(c2ccc(-c3cc4c(-c5cccc(N6CCOc7cc(C8CC8)ccc7C6=O)c5CO)ccnc4[nH]3)cc2)C1 (stereo not shown) [Example J-2, 8-cyclopropyl-4-[3-[2-[4-(3-fluoro-1-methyl-3-piperidyl)phenyl]-1H-pyrrolo[2,3-b]pyridin-4-yl]-2-(hydroxymethyl)phenyl]-2,3-dihydro-1,4-benzoxazepin-5-one]
